Measurements: US12458630B2, “Combination therapy for cancer” (The Regents of the University of California, priority 2020, dated 2025)
“Also recorded” adds a separate entry of the source.

Experiments:
KC6141 cells [1] = test: Luminescence ATP detection assay; format: cell-based, mouse; conditions: KC6141 cells on ECM, 0.5 mM glucose, 24 hrs; EIPA 10.5 μM, MBQ-167 500 nM, MRT68921 600 nM
Description: (§1) Extracellular Matrix (ECM) Preparation. Skin fibroblasts were seeded on 6/12/96-well plates. One day after plating, cells were switched into DMEM (with pyruvate) with 10% dialysed FBS supplemented with or without 500 μM ^3H-proline and 100 μM Vitamin C. Cells were cultured for 6 days with media renewal every 24 h. After six days, skin fibroblasts were removed by washing in 1 ml or 500 μl or 100 μl per well PBS with 0.5% (v/v) Triton X-100 and 20 mM NH4OH. ECM was washed five times with PBS before plating KC6141 cells. The following day, KC6141 cells were switched into the indicated medium for 24 or 72 hrs.
Luminescence ATP Detection Assay. Intracellular ATP level was determined with luminescence ATP detection assay system (PerkinElmer) according to manufacturer's protocol. Briefly, KC6141 cells were grown on 96-well plates coated with or without ECM in the presence of 100 μl 0.5 mM glucose medium with or without EIPA (10.5 μM), MBQ-167 (500 nM), MRT68921 (600 nM) or their combinations for 24 hrs. 50 μl mammalian cell lysis solution was added and shaken for 5 minutes. Next, 50 μl substrate solution was added and shaken for five minutes. Finally, plate was adapted in dark for 10 minutes and luminescence was measured.

KC6141 mouse PDAC cells = test: Cell viability assay (CCK-8); format: cell-based; conditions: WT and IKKα KD 6141 cells on ECM, 0.5 mM glucose, 3 days; EIPA, IPI549 600 nM, MBQ-167 500 nM
Description: as §1
(§2) Cell viability assay. Cell viability was determined with Cell Counting Kit-8 assay (CCK-8 assay kit, Glpbio). Cells were plated in 96-well plates at a density of 3000 cells (MIA PaCa-2) or 1500 cells (KC6141) per well and incubated overnight prior to treatment. EIPA (10 μM), MRT68921 (600 nM) or erlotinib (2 μM, Sigma) were added to the wells for 72 and 96 hrs. Next, 10 μL of CCK-8 was added to each well. The optical density was read at 450 nm using a microplate reader (FilterMax F5, Molecular Devices, USA) at day 0, 1, 2, 3, and 4. For glutamine-deprivation assays, cells in 96-well plates were rinsed briefly in PBS and incubated in the 0.2 mM glutamine. Glutamine-free DMEM medium was supplemented with 0.2 mM glutamine in the presence of 10% dialysed FBS and 25 mM HEPES. For some conditions, the medium was supplemented with a final concentration of 2% BSA (Fraction V, fatty-acid-, nuclease and protease-free, Calbiochem). For all experiments, media were replaced every 24 hrs. Viable cell counts were obtained using CCK-8 assay described as above.
(§3) In some embodiments, cells were plated in 96-well plates coated with or without ECM at a density of 3000 cells (MIA PaCa-2, 1444, 1305, COLO 357/FG) or 1500 cells (KC6141) per well and incubated overnight prior to treatment. EIPA (10.5 μM), IPI549 (600 nM), MBQ-167 (500 nM), MRT68921 (600 nM) or erlotinib (2 μM, Sigma), ML385 (10 μM, Sigma), HCQ (10 μM or 80 μM) or their combinations were added to the wells for 24, 72 or 96 hrs. Next, 10 μL of CCK-8 was added to each well. The optical density was read at 450 nm using a microplate reader (FilterMax F5, Molecular Devices, USA) at day 0, 1, 2, 3, and 4. For glutamine-deprivation assays, cells in 96-well plates were rinsed briefly in PBS and incubated in the 0.2 mM glutamine. Glutamine-free DMEM medium was supplemented with 0.2 mM glutamine in the presence of 10% dialyzed FBS and 25 mM HEPES. For glucose-deprivation assays, cells in 96-well plates were rinsed briefly in PBS and incubated in the 0.5 mM glucose. Glucose-free DMEM medium was supplemented with 0.5 mM glucose in the presence of 10% dialyzed FBS and 25 mM HEPES. For some conditions, the medium was supplemented with a final concentration of 2% BSA (Fraction V, fatty-acid-, nuclease and protease-free, Calbiochem). For all experiments, media were replaced every 24 hrs. Viable cell counts were obtained using CCK-8 assay described as above.

KC6141 cells [2] = test: L-Amino acid assay; format: cell-based, mouse; conditions: KC6141 cells on ECM, 0.5 mM glucose, 24 hrs
Description: as §1
L-Amino Acid Assay. Total amount of free L-amino acids (except for glycine) were measured by L-Amino Acid Assay Kit (Colorimetric) (antibodies) according to manufacturer's protocol. Briefly, KC6141 cells were grown on 6-well plates coated with or without ECM and treated as above. The cells were resuspended at 10^6 cells/mL 1× Assay Buffer and were homogenized on ice and then centrifuged to remove debris. 50 μL of each L-Alanine standard or cell lysis was added into wells of a 96-well microtiter plate. Then 50 μL of Reaction Mix was added to each well. The well contents were mixed thoroughly and incubated for 90 minutes at 37° C. protected from light. The plate was read with a spectrophotometric microplate reader in the 540-570 nm range. The concentration of L-Amino Acids was calculated within samples by comparing the sample OD to the standard curve.

MIA PaCa-2 cells [3] = test: TMR-DEX macropinosome uptake assay; format: cell-based, human
Description: Cell imaging. Immunostaining was performed as described^44. Cells were cultured on coverslips and fixed in 4% PFA for 10 min at room temperature. After washing twice in PBS, cells were incubated in PBS containing 10% FBS to block nonspecific sites of antibody adsorption. The cells were then incubated with the appropriate primary antibodies (diluted 1:100) and secondary antibodies (diluted 1:500) in PBS containing 10% FBS with or without 0.1% saponin. For cell macropinosome visualization, 24 hrs after seeding, the cells were serum starved for 18 hrs. Macropinosomes were marked using a high-molecular-mass (70 KD) TMR-Dextran (Invitrogen)-uptake assay, wherein TMR-DEX was added to serum-free medium at a final concentration of 1 mg/ml for 30 min at 37° C. At the end of the incubation period, the cells were rinsed five times in cold PBS and immediately fixed in 4% PFA. For tissue macropinosome visualization^45, fresh pancreata were cut into pieces with an approximate 5-mm cuboidal shape. A tissue section was placed in a 24-well plate and injected 150 μL of 10 mg/ml TMR-DEX solution directly into the tissue piece. Another 250 μL of diluted TMR-DEX solution were added to the well to immerse the tissue section. The plate was incubated in the dark for 15 min at room temperature. Then the tissue section was rinsed twice in PBS before embedding in O.C.T. compound in a prelabeled cryomold. Specimens were frozen on dry ice and stored at −80° C. for further processing. Immunostaining was performed as described above. Images were captured using a TCS SPE Leica confocal microscope (Leica, Germany).
In some embodiments, Immunostaining was performed as described (Su et al., 2017). Cells were cultured on coverslips and fixed in 4% PFA for 10 min at room temperature or methanol for 10 min at −20° C. After washing twice in PBS, cells were incubated in PBS containing 10% FBS to block nonspecific sites of antibody adsorption. The cells were then incubated with the appropriate primary antibodies (diluted 1:100) and secondary antibodies (diluted 1:500) in PBS containing 10% FBS with or without 0.1% saponin. For cell macropinosome visualization, 24 hrs after seeding, the cells were serum starved for 18 hrs. Macropinosomes were marked using a high-molecular-mass (70 KDa) TMR-DEX (Invitrogen)-uptake assay, wherein TMR-DEX was added to serum-free medium at a final concentration of 1 mg/ml for 30 min at 37° C. At the end of the incubation period, the cells were rinsed five times in cold PBS and immediately fixed in 4% PFA. For tissue macropinosome visualization (Lee et al., 2019), fresh pancreata were cut into pieces with an approximate 5-mm cuboidal shape. Tissue fragments were placed in a 24-well plate and injected with 150 μL of 10 mg/ml TMR-DEX solution. Another 250 μL of diluted TMR-DEX solution were added to the well to immerse the tissue fragment. The plate was incubated in the dark for 15 min at room temperature. Then the tissue fragments were rinsed twice in PBS before embedding in O.C.T. compound in a prelabeled cryomold. Specimens were frozen on dry ice and stored at −80° C. for further processing. Immunostaining was performed as described above. Images were captured using a TCS SPE Leica confocal microscope (Leica, Germany).
Quantification and statistics. To quantify the number of LC3 puncta, a total of 30 cells were recorded and analyzed using the LAS X measurement program on the TCS SPE Leica. Macropinosomes were quantified by using the ‘Analyze Particles’ feature in ImageJ (National Institutes of Health). Macropinocytic uptake index was computed by determining the total macropinosome area in relation to the total cell area for each field and then by determining the average across all the fields (at least 6 fields). These measurements were done on randomly-selected fields of view. Two-tailed unpaired Student's t test was performed for statistical analysis using GraphPad Prism software. […]

MIA PaCa-2 cells [4] = test: Immunoblot of p62 and LC3 (autophagic degradation); format: cell-based, human
Description: Autophagy Induction. […] For starvation, cells were incubated in starvation medium (20 mM HEPES pH 7.4, 140 mM NaCl, 1 mM CaC2, 1 mM MgCl2, and 1% BSA) for 1.5 or 2 hrs. For glucose starvation, cells were washed three times with PBS and incubated in glucose-free DMEM containing 10% dialyzed FBS for 4 hrs. Immunoblot and immunoprecipitation. Cells were harvested and lysed in RIPA buffer (50 mM Tris-HCl, pH 7.4, 150 mM NaCl, 1% Triton X-100, 1% Na deoxycholate, 0.1% SDS, 1 mM EDTA) supplemented with complete protease inhibitor cocktail. Proteins were resolved on SDS-polyacrylamide gels, and then transferred to a polyvinylidene difluoride membrane. After blocking with 5% (w/v) fat free milk, the membrane was stained with the corresponding primary antibodies followed by incubation with the appropriate secondary HRP-conjugated antibodies, and development with ECL. Immunoreactive bands were detected by automatic X-ray film processor or KwikQuant Imager.

MIA PaCa-2 cells [5] = test: LC3 puncta / LC3-LAMP1 immunofluorescence; format: cell-based, human; conditions: MIA PaCa-2 cells, 10, 20, 40, 80 μM HCQ
Description: Cell imaging. Immunostaining was performed as described^44. Cells were cultured on coverslips and fixed in 4% PFA for 10 min at room temperature. After washing twice in PBS, cells were incubated in PBS containing 10% FBS to block nonspecific sites of antibody adsorption. The cells were then incubated with the appropriate primary antibodies (diluted 1:100) and secondary antibodies (diluted 1:500) in PBS containing 10% FBS with or without 0.1% saponin. For cell macropinosome visualization, 24 hrs after seeding, the cells were serum starved for 18 hrs. Macropinosomes were marked using a high-molecular-mass (70 KD) TMR-Dextran (Invitrogen)-uptake assay, wherein TMR-DEX was added to serum-free medium at a final concentration of 1 mg/ml for 30 min at 37° C. At the end of the incubation period, the cells were rinsed five times in cold PBS and immediately fixed in 4% PFA. For tissue macropinosome visualization^45, fresh pancreata were cut into pieces with an approximate 5-mm cuboidal shape. […]
Quantification and statistics. To quantify the number of LC3 puncta, a total of 30 cells were recorded and analyzed using the LAS X measurement program on the TCS SPE Leica. Macropinosomes were quantified by using the ‘Analyze Particles’ feature in ImageJ (National Institutes of Health). […]

MIA PaCa-2 cells [6] = test: Cell viability assay (CCK-8); format: cell-based, human
Description: as §2, §3

COLO 357/FG cells = test: LC3 puncta and p62/LC3 immunoblot; format: cell-based, human; conditions: IKKα^low COLO 357/FG cells, normal or starvation medium 2 hrs, +/- CQ
Description: Autophagy Induction. […] For starvation, cells were incubated in starvation medium (20 mM HEPES pH 7.4, 140 mM NaCl, 1 mM CaC2, 1 mM MgCl2, and 1% BSA) for 1.5 or 2 hrs. For glucose starvation, cells were washed three times with PBS and incubated in glucose-free DMEM containing 10% dialyzed FBS for 4 hrs.
Immunoblot and immunoprecipitation. Cells were harvested and lysed in RIPA buffer (50 mM Tris-HCl, pH 7.4, 150 mM NaCl, 1% Triton X-100, 1% Na deoxycholate, 0.1% SDS, 1 mM EDTA) supplemented with complete protease inhibitor cocktail. Proteins were resolved on SDS-polyacrylamide gels, and then transferred to a polyvinylidene difluoride membrane. After blocking with 5% (w/v) fat free milk, the membrane was stained with the corresponding primary antibodies followed by incubation with the appropriate secondary HRP-conjugated antibodies, and development with ECL. Immunoreactive bands were detected by automatic X-ray film processor or KwikQuant Imager.
Data are presented as mean±SEM.

CCn1c2ccccc2c2cc(-n3nncc3-c3ccccc3)ccc21 (racemic) [MBQ-167]
cellular ATP (KC6141 cells [1]): reduced
cell viability enhanced by extracellular matrix (ECM) (KC6141 mouse PDAC cells): suppressed
amino acid content (KC6141 cells [2]): reduced

CCN(CCO)CCCC(C)Nc1ccnc2cc(Cl)ccc12 (stereo not shown) [HCQ, hydroxychloroquine]
disruption of MP (MIA PaCa-2 cells [3]; 10 μM HCQ, inferred from lack of synergy with MRT68921): barely disrupted MP
degradation of MP (DQ-BSA in TMR-DEX macropinosomes) (MIA PaCa-2 cells [3]; MIA PaCa-2 cells, 10, 20, 40, 80 μM HCQ): induced the degradation of MP at 10 μM, 20 μM, 40 μM, but not at 80 μM
MP (TMR-DEX and DQ-BSA co-localization, MP-related protein expression) (MIA PaCa-2 cells [3]; MIA PaCa-2 cells, 10-40 μM HCQ): stimulated MP
MP inhibition (MIA PaCa-2 cells [3]; MIA PaCa-2 cells, HCQ 10-80 μM): inhibited MP only at 80 μM
autophagic degradation (LC3-II, p62, lysosomal LC3 retention) (MIA PaCa-2 cells [4]; MIA PaCa-2 cells, 10-40 μM HCQ): inhibited autophagic degradation
LC3-LAMP1 colocalization (MIA PaCa-2 cells [5]): enhanced LC3-LAMP1 colocalization in a concentration-dependent manner
synergy in growth inhibition with EIPA or ML385 (MIA PaCa-2 cells [6]; HCQ 10 μM combined with EIPA or ML385): synergized
synergy in growth inhibition with MRT68921 (MIA PaCa-2 cells [6]; HCQ 10 μM combined with MRT68921): did not synergize
cell growth (MIA PaCa-2 cells [6]; WT and IKKα^Δ MIA PaCa-2 cells, 80 μM HCQ, 3 days): inhibited cell growth
cell viability (total viable cells relative to vehicle) (MIA PaCa-2 cells [6]; WT and IKKα^Δ MIA PaCa-2 cells, 10 or 80 μM HCQ, 3 days): suppression of cell viability

CCN(CC)CCCC(C)Nc1ccnc2cc(Cl)ccc12 (stereo not shown) [CQ, chloroquine]
p62 and LC3-II levels (MIA PaCa-2 cells [4]; IKKα-deficient (KD) MIA PaCa-2 cells, normal or starvation medium 2 hrs, +/- CQ): did not increase p62 and LC3-II; also recorded: failed to increase p62 and LC3-II
LC3 puncta, LC3 lipidation and p62 on starvation (COLO 357/FG cells): not affected
LC3 puncta, LC3 lipidation and p62 on starvation (COLO 357/FG cells; listed as chloroquine): no effect
